pIC50: −log10 of the molar value.
Test system: PDGFR
Test: Rat A10 cell proliferation assay
Type: cell-based
Conditions: Table 1; Rat A10 cells, recombinant rat PDGF-BB, CellTiter-Glo after 68 hours
Outline: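 Rat A10 cells in DMEM with 1% FBS and 10 ng/mL rat PDGF-BB, preincubated 4 h at 37 °C, then exposed to 3-fold serially diluted compound for 68 h. Viability/proliferation read as CellTiter-Glo luminescence.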

With Cc1ccc(C(=O)N[C@@H]2c3ccccc3C[C@@H]2O)cc1NC(=O)c1cnc2ccccn12 [F20, N-(5-{[(1R,2S)-2-hydroxy-2,3-dihydro-1H-inden-1-yl]carbamoyl}-2-methylphenyl)imidazo[1,2-a]pyridine-3-carboxamide] the pIC50 was 7.54.

— patent US20140206682A1, “COMPOUNDS AND COMPOSITIONS AS PDGFR KINASE INHIBITORS” (NOVARTIS PHARMACEUTICALS UK LIMITED, priority 2011, published 2014)
